Tested on: Abeta 40
Assay: In vivo inhibition of beta-secretase: Abeta 40 reduction in CSF and brain of the rat
Conditions: 10 mpk (unless otherwise noted), after 4 hrs
Text: In Vivo Inhibition of Beta-Secretase
Several animal models, including mouse, rat, dog, and monkey, may be used to screen for inhibition of beta-secretase activity in vivo following administration of a test compound sample. Animals used in this invention can be wild type, transgenic, or gene knockout animals. […] One to twenty-four hours following the administration of compound, animals are sacrificed, and brains as well as cerebrospinal fluid (CSF) and plasma are removed for analysis of A-beta levels and drug or test compound concentrations (Dovey et al., 2001, Journal of Neurochemistry, 76, 173-181) Beginning at time 0, animals are administered by oral gavage, or other means of delivery such as intravenous injection, an inhibitory test compound of up to 100 mg/kg in a standard, conventional formulation, such as 2% hydroxypropyl methylcellulose, 1% Tween80. A separate group of animals receive 2% hydroxypropyl methylcellulose, 1% Tween80 alone, containing no test compound, and serve as a vehicle-control group. At the end of the test period, animals are sacrificed and brain tissues, plasma or cerebrospinal fluid are collected. Brains are either homogenized in 10 volumes (w/v) of 0.2% diethylamine (DEA) in 50 mM NaCl (Best et al., 2005, Journal of Pharmacology and Experimental Therapeutics, 313, 902-908), or in 10 volumes of 0.5% TritonX-100 in Tris-buffered saline (pH at about 7.6). Homogenates are centrifuged at 355,000 g, 4° C. for 30 minutes. CSF or brain supernatants are then analyzed for the presence of A-beta peptide by specific sandwich ELISA assays based on ECL (Electrochemiluminescence) technology. For example, rat Abeta40 is measured using biotinylated-4G8 (Signet) as a capture antibody and Fab40 (an in-house antibody specific to the C-terminal of Abeta40) as a detection antibody.
Actual vehicles used: Oral: 2% HPMC, 1% Tween80, pH 2.2

SMILES	% reduction of rat CSF levels at 10 pmk [%]	% reduction of rat brain levels at 10 mpk [%]
CC1(C)C(N)=N[C@](C)(c2cc(NC(=O)c3ccc(F)cn3)ccc2F)CS1(=O)=O [Example 18, N-(3-((3R)-5-amino-3,6,6-trimethyl-1,1-dioxido-3,6-dihydro-2H-1,4-thiazin-3-yl)-4-fluorophenyl)-5-fluoro-2-pyridinecarboxamide]	73	57
CC1(C)C(N)=N[C@](C)(c2cc(NC(=O)c3ccc(Cl)cn3)ccc2F)CS1(=O)=O [Example 19, N-(3-((3R)-5-amino-3,6,6-trimethyl-1,1-dioxido-3,6-dihydro-2H-1,4-thiazin-3-yl)-4-fluorophenyl)-5-chloro-2-pyridinecarboxamide]	83	74
COc1cnc(C(=O)Nc2ccc(F)c([C@]3(C)CS(=O)(=O)[C@@](C)(F)C(N)=N3)c2)cn1 [Example 30, N-(3-((3R,6R)-5-amino-6-fluoro-3,6-dimethyl-1,1-dioxido-3,6-dihydro-2H-1,4-thiazin-3-yl)-4-fluorophenyl)-5-methoxy-2-pyrazinecarboxamide]	56	37
CC1(C)C(N)=N[C@](C)(c2cc(Nc3nccc4cc(Cl)cnc34)ccc2F)CS1(=O)=O [Example 45, N-(3-((3R)-5-amino-3,6,6-trimethyl-1,1-dioxido-3,6-dihydro-2H-1,4-thiazin-3-yl)-4-fluorophenyl)-3-chloro-1,7-naphthyridin-8-amine]	63	34
COc1cnc2c(Nc3ccc(F)c([C@]4(C)CS(=O)(=O)C(C)(C)C(N)=N4)c3)nccc2c1 [Example 46, N-(3-((3R)-5-amino-3,6,6-trimethyl-1,1-dioxido-3,6-dihydro-2H-1,4-thiazin-3-yl)-4-fluorophenyl)-3-methoxy-1,7-naphthyridin-8-amine]	76	64
COc1cnc2c(Nc3ccc(F)c([C@]4(C)CS(=O)(=O)C(C)(C)C(N)=N4)c3)nccc2n1 [Example 47, N-(3-((3R)-5-amino-3,6,6-trimethyl-1,1-dioxido-3,6-dihydro-2H-1,4-thiazin-3-yl)-4-fluorophenyl)-2-methoxypyrido[3,4-b]pyrazin-5-amine]	82	66
CC1(C)C(N)=N[C@](C)(c2cc(Nc3nccc4cc(C#N)cnc34)ccc2F)CS1(=O)=O [Example 48, 8-((3-((3R)-5-amino-3,6,6-trimethyl-1,1-dioxido-3,6-dihydro-2H-1,4-thiazin-3-yl)-4-fluorophenyl)amino)-1,7-naphthyridine-3-carbonitrile]	79	59
CC1(C)C(N)=N[C@](C)(c2cc(Nc3ncc(F)c4cc(C#N)cnc34)ccc2F)CS1(=O)=O [Example 76, (R)-8-((3-(5-Amino-3,6,6-trimethyl-1,1-dioxido-3,6-dihydro-2H-1,4-thiazin-3-yl)-4-fluorophenyl)amino)-5-fluoro-1,7-naphthyridine-3-carbonitrile]	60	46
C[C@@]1(c2cc(NC(=O)c3ccc(Cl)cn3)ccc2F)CS(=O)(=O)C2(CC(F)(F)C2)C(N)=N1 [Example 120, (R)—N-(3-(9-amino-2,2-difluoro-7-methyl-5,5-dioxido-5-thia-8-azaspiro[3.5]non-8-en-7-yl)-4-fluorophenyl)-5-chloropicolinamide]	39	18
C[C@]1(c2cc(NC(=O)c3ccc(Cl)cn3)ccc2F)N=C(N)C2(CCC2)S(=O)(=O)[C@@H]1F [Example 131, N-(3-((6S,7R)-9-amino-6-fluoro-7-methyl-5,5-dioxido-5-thia-8-azaspiro[3.5]non-8-en-7-yl)-4-fluorophenyl)-5-chloropicolinamide]	10	−18
Cc1cc(OC(F)F)cnc1C(=O)Nc1ccc(F)c([C@@]2(C)N=C(N)C3(CCC3)S(=O)(=O)[C@@H]2F)c1 [Example 132, N-(3-((6S,7R)-9-amino-6-fluoro-7-methyl-5,5-dioxido-5-thia-8-azaspiro[3.5]non-8-en-7-yl)-4-fluorophenyl)-5-(difluoromethoxy)-3-methylpicolinamide]	31	10
Cc1cc(OC(F)F)cnc1C(=O)Nc1ccc(F)c([C@]2(C)CS(=O)(=O)C(C)(C)C(N)=N2)c1 [Example 144, (R)—N-(3-(5-amino-3,6,6-trimethyl-1,1-dioxido-3,6-dihydro-2H-1,4-thiazin-3-yl)-4-fluorophenyl)-5-(difluoromethoxy)-3-methylpicolinamide]	79	72
Cc1cc(OC(F)F)cnc1C(=O)Nc1ccc(F)c([C@]2(CF)CS(=O)(=O)C(C)(C)C(N)=N2)c1 [Example 148, (S)—N-(3-(5-amino-3-(fluoromethyl)-6,6-dimethyl-1,1-dioxido-3,6-dihydro-2H-1,4-thiazin-3-yl)-4-fluorophenyl)-5-(difluoromethoxy)-3-methylpicolinamide]	68	57
Cc1c(C(=O)Nc2ccc(F)c([C@]3(CF)CS(=O)(=O)C(C)(C)C(N)=N3)c2)nc2ccc(Cl)cn12 [Example 158, (S)—N-(3-(5-amino-3-(fluoromethyl)-6,6-dimethyl-1,1-dioxido-3,6-dihydro-2H-1,4-thiazin-3-yl)-4-fluorophenyl)-6-chloro-3-methylimidazo[1,2-a]pyridine-2-carboxamide]	11	−5
COc1cnc2c(Nc3ccc(F)c([C@]4(CF)CS(=O)(=O)C(C)(C)C(N)=N4)c3)ncc(F)c2c1 [Example 159, (S)-5-amino-3-(2-fluoro-5-((5-fluoro-3-methoxy-1,7-naphthyridin-8-yl)amino)phenyl)-3-(fluoromethyl)-6,6-dimethyl-3,6-dihydro-2H-1,4-thiazine 1,1-dioxide]	45	31
Cc1cc(OC(F)F)cnc1C(=O)Nc1cc([C@]2(C)CS(=O)(=O)C(C)(C)C(N)=N2)c(=O)n(C)c1 [Example 171, (R)—N-(5-(5-amino-3,6,6-trimethyl-1,1-dioxido-3,6-dihydro-2H-1,4-thiazin-3-yl)-1-methyl-6-oxo-1,6-dihydropyridin-3-yl)-5-(difluoromethoxy)-3-methylpicolinamide]	1	3
COc1cnc2c(Nc3ccc(F)c([C@]4(C)CS(=O)(=O)[C@@](C)(F)C(N)=N4)c3)ncnc2c1 [Example 177, (3R,6R)-5-Amino-6-fluoro-3-(2-fluoro-5-((7-methoxypyrido[3,2-d]pyrimidin-4-yl)amino)phenyl)-3,6-dimethyl-3,6-dihydro-2H-1,4-thiazine 1,1-dioxide]	37	24
CC1(C)C(N)=N[C@](CF)(c2cc(NC(=O)c3ccc(Cl)cn3)ccc2F)CS1(=O)=O [Example 193, (S)—N-(3-(5-amino-3-(fluoromethyl)-6,6-dimethyl-1,1-dioxido-3,6-dihydro-2H-1,4-thiazin-3-yl)-4-fluorophenyl)-5-chloropicolinamide]	57	30
Cc1cc(Cl)cnc1C(=O)Nc1ccc(F)c([C@]2(CF)CS(=O)(=O)C3(CC3)C(N)=N2)c1 [Example 216, (S)—N-(3-(8-amino-6-(fluoromethyl)-4,4-dioxido-4-thia-7-azaspiro[2.5]oct-7-en-6-yl)-4-fluorophenyl)-5-chloro-3-methylpicolinamide]	57	14
COc1cnc2c(Nc3cnc(F)c([C@]4(C)CS(=O)(=O)C(C)(C)C(N)=N4)c3)ncc(F)c2c1 [Example 219, N-(5-((3R)-5-amino-3,6,6-trimethyl-1,1-dioxido-3,6-dihydro-2H-1,4-thiazin-3-yl)-6-fluoro-3-pyridinyl)-5-fluoro-3-methoxy-1,7-naphthyridin-8-amine]	42	9
COc1cnc2c(Nc3cnc(F)c([C@]4(C)CS(=O)(=O)C(C)(C)C(N)=N4)c3)nccc2n1 [Example 222, N-(5-((3R)-5-amino-3,6,6-trimethyl-1,1-dioxido-3,6-dihydro-2H-1,4-thiazin-3-yl)-6-fluoro-3-pyridinyl)-2-methoxypyrido[3,4-b]pyrazin-5-amine]	65	49

Source: patent US9556135B2, “Amino-dihydrothiazine and amino-dioxido dihydrothiazine compounds as beta-secretase antagonists and methods of use” (Amgen Inc., priority 2012, dated 2017)
